These results are taken from patent publication US11629139B2 (priority 2017, dated 2023).

For series [1] the following is noted: mouse, in vivo.
For series [2] the following is noted: pH 7.4.
For series [3] the following is noted: plasma.
Series [4] relates to vesicular stomatitis virus particles (VSV) pseudotyped with EboV Zaire GP. The following applies: cited from earlier work.
Series [5] has the same test system. Kind of series: microbe, parasite or virus in culture. The series is classed as cell-based.
Series [6] is described as follows: in vitro. The following applies: mouse, microsomes.
A further series is described as follows: physchem. The following applies: pH 7.4, aqueous buffer, kinetic from dmso stock.
Another series is described as follows: in vivo. The following applies: mouse, po, 25 mg/kg.
Experiment in series [7]: not given
The source holds these as a separate data set.

The subject of another series is Ebola virus (Mayinga). Kind of series: microbe, parasite or virus in culture. It is filed as cell-based. The settings on record: Zaire ebolavirus, HeLa, read-out: EBOV Maiynga) (Hela) EC50.
Series [8] can be described thus: in vitro. The following applies: mouse, plasma.
In a further series the test system is EBOV Makona. Nature of the series: microbe, parasite or virus in culture. It is filed as cell-based, Ebola virus. The settings on record: Zaire ebolavirus, HeLa, read-out: EBOV Makona (Hela) EC50.
For another series, the system named is EBOV Kikwit. Nature of the series: microbe, parasite or virus in culture. The series is classed as cell-based, Ebola virus. The settings on record: Zaire ebolavirus, HeLa, read-out: EBOV Kikwit(Hela) EC50.

Structures are written as SMILES. In brackets after ≈: the same amount, converted by molar mass. Where two headings read alike, the source gives them in different places.

In the case of `CS(=O)(=O)c1ccc(COc2ccc(Cl)cc2CN2CCN(C(=O)CNC(=O)C3CC34CCC(F)(F)CC4)CC2)cc1` (racemic) [(racemic)-1476], in the series with cell viability, the “Concentration required to reduce cell viability by 50%” value is “exceeded 10 μM”.

As to `[2H]C([2H])(c1cc(Cl)ccc1NCc1ccc(S(C)(=O)=O)cc1)N1CCN(C(=O)CNC(=O)C2CC23CCC(F)(F)CC3)CC1` (racemic) [(racemic)-1503], the “Concentration required to reduce cell viability by 50%” value in the series on cell viability is recorded as “exceeded 10 μM”.

On to `Nc1ccc(Cl)cc1CN1CCN(C(=O)CNC(=O)C2CC23CCC(F)(F)CC3)CC1` (single isomer, unassigned; (-)) [(−)-1413], for which the highest concentration (Cmax) – broadly, the highest concentration seen after dosing – in series [1] (po, 50 mg/kg) turned out to be 19.5 µM.

Take `CS(=O)(=O)c1ccc(COc2ccc(Cl)cc2CN2CCN(C(=O)CNC(=O)C3CC34CCC(F)(F)CC4)CC2)cc1` (single isomer, unassigned; (-)) [(−)-1476]: the Kinetic solubility in series [2] turned out to be 10 µM. Moreover, in series [1], the “C@12 hr” value came to 4.7 µM, the “Cl_obs” value stood at 11.9 mL/min/kg and the “Plasma concentration after 12 hours relative to in vitro IC50 against rVSV EBOV infection in 50% human serum” value was determined as 50 fold. In addition, in series [1] (po, 50 mg/kg), the “AUClast” value was 116.4 µM·h, the Cmax was determined as 10.4 µM, the “T1/2” value came out at 132 min and the Tmax (commonly the time from dosing to the highest level) was 240 min. Also, in series [3], the “Mouse PPB (% bound)” value is listed as 97.6%. Moreover, the “MLM, T½ (min) (ritonavir 3 μM)” value (mouse, microsomes) is above 120 min.

For the molecule `CS(=O)(=O)c1ccc(CNc2ccc(Cl)cc2CN2CCN(C(=O)CNC(=O)C3CC34CCC(F)(F)CC4)CC2)cc1` (single isomer, unassigned; (-)) [(−)-1503], the highest level in [1] (po, 50 mg/kg) (Cmax) was 7.4 µM.

For `COC(=O)c1ccc(COc2ccccc2CN2CCN(C(=O)CNC(=O)CC34CC5CC(CC(C5)C3)C4)CC2)cc1` [Compound 3.47, reference compound], the “Concentration required to reduce cell viability by 50%” value in the series with cell viability is listed as “exceeded 10 μM”. The “Potency against EboV GP-dependent infection” value in [4] is “increased potency”.

On to `O=C(CC12CC3(F)CC(F)(CC(F)(C3)C1)C2)NCC(=O)N1CCN(Cc2ccccc2OCc2ccc(Br)cc2)CC1` [Compound 1254], for which, in series [5] (Vesicular stomatitis virus), inhibition was half-maximal at 0.2 µM (IC50). In addition, in “in vitro [6]” (pH 7.4, MLM T½ (min)), the half-life (commonly the time in which the quantity being followed falls by half) came out at 1 min.

`Nc1ccc(Cl)cc1CN1CCN(C(=O)CNC(=O)CC2CCC(F)(F)CC2)CC1` [Compound 1343, N-(2-(4-(2-Amino-5-chlorobenzyl)piperazin-1-yl)-2-oxoethyl)-2-(4,4-difluorocyclohexyl)acetamide]: the “Sol” value in series [2] is above 100 mM. Moreover, inhibition in series [5] (Vesicular stomatitis virus) was half-maximal at 0.32 µM (IC50). The “Mouse PPB (% bound)” value in series [3] is 86.9%. Further, in “physchem”, the solubility (kinetic) (usually solubility judged after dilution from a stock solution rather than from solid) was above 100 µM. Also, the half-life in “in vitro [6]” (pH 7.4, MLM T½ (min)) was determined as 9 min; in the series “in vitro [6]” (pH 7.4, T1/2(min)), 8.7 min.

For the molecule `Nc1ccc(Cl)cc1CN1CCN(C(=O)CNC(=O)C2CC23CCC(F)(F)CC3)CC1` (centres unmarked) [Compound 1373, N-(2-(4-(2-Amino-5-chlorobenzyl)piperazin-1-yl)-2-oxoethyl)-6,6-difluorospiro[2.5]octane-1-carboxamide], it took 0.1 µM to reach half-maximal inhibition in series [5] (Vesicular stomatitis virus) (IC50). Also, the half-life in “in vitro [6]” (pH 7.4, T1/2(min)) is 1.3 min.

In the case of `[2H]C([2H])(c1cc(Cl)ccc1N)N1CCN(C(=O)CNC(=O)CC2CCC(F)(F)CC2)CC1` [Compound 1412, N-(2-(4-((2-amino-5-chlorophenyl)methyl-d2)piperazin-1-yl)-2-oxoethyl)-2-(4,4-difluorocyclohexyl)acetamide], in series [2], the Kinetic solubility came out at 93 µM and the “Sol” value was above 100 mM. In addition, in [1], the “C@12 hr” value stood at 1.7 µM and the “Cl_obs” value worked out at 12.3 mL/min/kg. In [1] (po), the “Decrease of the clearance by co-administration of ritonavir” value is listed as around 4 fold and the “Increase of the AUC by co-administration of ritonavir” value was around 4 fold. In addition, in [1] (po, 25 mg/kg), the “C@12 hr” value stood at 0.2 µM, the “Cl_obs” value is 49.0 mL/min/kg, the concentration peaked (Cmax) at 7.2 µM and the “T1/2” value turned out to be 138 min. 0.068 µM corresponded to half-maximal inhibition in [5] (IC50). For the same molecule, inhibition in series [5] (Vesicular stomatitis virus) was half-maximal at 0.13 µM (IC50). Also, the Cmax in the series “in vivo” amounted to 12 µM. In addition, the solubility (kinetic) in the series “physchem” was above 100 µM. For the same molecule, the “Effect of CYP3A4 inhibition on T1/2 (FIG. 9)” value (mouse, microsomes) is listed as “improves”. The “T1/2 (min)” value (mouse, microsomes, pH 7.4) was 1.4/144 min. For the same molecule, under “pH 7.4”, the “Increase of stability in mouse liver microsomes by ritonavir” value is recorded as 10- to 30 fold. In the series “in vitro [6]” (pH 7.4, Microsome T1/2), the half-life fell in the range of 8.7 to 13 min. The same molecule showed a half-life in the series “in vitro [6]” (pH 7.4, T1/2(min)) of 13 min. Besides, in “in vitro [6]” (pH 7.4, T1/2 + ritonavir (min)), the half-life is 144 min.

For the molecule `[2H]C([2H])(c1cc(Cl)ccc1N)N1CCN(C(=O)CNC(=O)C2CC23CCC(F)(F)CC3)CC1` (centres unmarked) [Compound 1413, N-(2-(4-((2-amino-5-chlorophenyl)methyl-d2)piperazin-1-yl)-2-oxoethyl)-6,6-difluorospiro[2.5]octane-1-carboxamide], the half-maximal inhibitory concentration (IC50) (usually the midpoint of a concentration-inhibition curve) in [5] was determined as 0.13 µM; in [5] (Vesicular stomatitis virus), 0.068 µM. The solubility (kinetic) in the series “physchem” is above 100 µM. For the same molecule, the “T1/2 (min)” value (mouse, microsomes, pH 7.4) is 13/215 min. Also, the half-life in the series “in vitro [6]” (pH 7.4, Microsome T1/2) is 1.4 to 2 min; in “in vitro [6]” (pH 7.4, T1/2(min)), 2 min; in the series “in vitro [6]” (pH 7.4, T1/2 + ritonavir (min)), 215 min.

On to `CS(=O)(=O)c1ccc(COc2ccc(Cl)cc2CN2CCN(C(=O)CNC(=O)CC3CCC(F)(F)CC3)CC2)cc1` [Compound 1458], for which, in series [5] (Vesicular stomatitis virus), it took 0.009 µM to reach half-maximal inhibition (IC50). In addition, the “Mouse plasma stability (% at 4 hours)” value in series [7] turned out to be 30%. Moreover, under “mouse, microsomes, pH 7.4”, the “MLM, T½ (min) (ritonavir 3 μM)” value is listed as above 120 min.

Regarding `CS(=O)(=O)c1ccc(CNc2ccc(Cl)cc2CN2CCN(C(=O)CNC(=O)CC3CCC(F)(F)CC3)CC2)cc1` [Compound 1477], the 50% effective concentration (EC50) – broadly, the concentration that produces a half-maximal response – in the series with Ebola virus (Mayinga) was 0.033 µM; with EBOV Makona it was 0.052 µM; in the series with EBOV Kikwit it was 0.012 µM. Moreover, the “Concentration required to reduce cell viability by 50%” value in the series on cell viability is listed as “exceeded 10 μM”. Further, the fraction unbound (usually the share of the substance not bound to proteins or other matrix) in “in vitro [8]” (m-plasma protein binding) stood at 0.001. The “m-μsome T1/2 (with 3 μM of Ritonavir)” value (mouse, microsomes, pH 7.4) is recorded as 90 min.

As to `CS(=O)(=O)c1ccc(CNc2ccc(Cl)cc2CN2CCN(C(=O)CNC(=O)C3CC34CCC(F)(F)CC4)CC2)cc1` (centres unmarked) [Compound 1478], the EC50 in the series with Ebola virus (Mayinga) was 0.035 µM; in the series with EBOV Makona, 0.017 µM; with EBOV Kikwit it was 0.009 µM. Moreover, the fraction unbound in “in vitro [8]” (m-plasma protein binding) turned out to be 0.001. Further, the “m-μsome T1/2 (with 3 μM of Ritonavir)” value (mouse, microsomes, pH 7.4) is 128 min.

In [5] (Vesicular stomatitis virus), `N#Cc1ccc(COc2ccc(Cl)cc2CN2CCN(C(=O)CNC(=O)C3CC34CCC(F)(F)CC4)CC2)nc1` (centres unmarked) [Compound 1622, 6,6-Difluoro-spiro[2.5]octane-1-carboxylic acid (2-{4-[5-chloro-2-(5-cyano-pyridin-2-ylmethoxy)-benzyl]-piperazin-1-yl)-2-oxo-ethyl)-amide] yielded a half-maximal inhibitory concentration (IC50) of 0.019 µM.

`CNC(=O)c1ccc(COc2ccccc2CN2CCN(C(=O)CNC(=O)CC34CC5CC(CC(C5)C3)C4)CC2)cc1` [Compound 1801] had a concentration for half-maximal inhibition (IC50) in series [5] (Vesicular stomatitis virus) of 2.1 µM.

On to `CN(C)C(=O)c1ccc(COc2ccccc2CN2CCN(C(=O)CNC(=O)CC34CC5CC(CC(C5)C3)C4)CC2)cc1` [Compound 1802], for which, in series [5] (Vesicular stomatitis virus), the IC50 amounted to 3.3 µM.

Molecule `O=C(CC12CC3CC(CC(C3)C1)C2)NCC(=O)N1CCN(Cc2ccccc2OCc2ccc(-c3ncco3)cc2)CC1` [Compound 1803, 2-((3r,5r,7r)-Adamantan-1-yl)-N-(2-(4-(2-((4-(oxazol-2-yl)benzyl)oxy)benzyl)piperazin-1-yl)-2-oxoethyl)acetamide] returned a concentration for half-maximal inhibition (IC50) in [5] (Vesicular stomatitis virus) of 0.27 µM. Moreover, in [7], the “Mouse plasma stability (% at 4 hours)” value is on record as 37%. The same molecule showed a free fraction (fraction unbound) in “in vitro [8]” (Mouse PPB (% bound)) of 0.003. In addition, in the series “physchem”, the kinetic solubility came to 5 µM (≈ 2.91 µg/mL). In the series “in vitro [6]” (pH 7.4, MLM T½ (min)), the half-life turned out to be 1 min.

On to `NC(=O)c1ccc(Cl)cc1CN1CCN(C(=O)CNC(=O)CC23CC4CC(CC(C4)C2)C3)CC1` [Compound 1804], for which the half-inhibitory concentration (IC50) in series [5] (Vesicular stomatitis virus) was 1.9 µM.

Consider `O=C(CNC(=O)C12CC3CC(C1)CC(c1ccc(O)c([N+](=O)[O-])c1)(C3)C2)N1CCN(Cc2ccccc2OCc2ccc(Br)cc2)CC1` [Compound 1805, (1s,3r,5R,7S)—N-(2-(4-(2-((4-bromobenzyl)oxy)benzyl)piperazin-1-yl)-2-oxoethyl)-3-(4-hydroxy-3-nitrophenyl)adamantane-1-carboxamide], for which the IC50 in series [5] (Vesicular stomatitis virus) was 0.6 µM.

The molecule `Nc1ccc(Cl)cc1CN1CCN(C(=O)CNC(=O)C2CC23CCCC3)CC1` (centres unmarked) [Compound 1806, N-(2-(4-(2-Amino-5-chlorobenzyl)piperazin-1-yl)-2-oxoethyl)spiro[2.4]heptane-1-carboxamide] had an IC50 in series [5] (Vesicular stomatitis virus) of 0.24 µM.

As for `Nc1ccc(Cl)cc1CN1CCN(C(=O)CNC(=O)C2CC23CCC3)CC1` (centres unmarked) [Compound 1807, N-(2-(4-(2-Amino-5-chlorobenzyl)piperazin-1-yl)-2-oxoethyl)spiro[2.3]hexane-1-carboxamide], in series [5] (Vesicular stomatitis virus), the IC50 was 2.5 µM.

On to `CC(C)c1nc(CN(C)C(=O)N[C@H](C(=O)N[C@@H](Cc2ccccc2)C[C@H](O)[C@H](Cc2ccccc2)NC(=O)OCc2cncs2)C(C)C)cs1` [Ritonavir, reference compound], for which, in [5] (Vesicular stomatitis virus, read-out: IC50, VSV EBOV infection), the half-inhibitory concentration (IC50) was above 25 µM.
